Values of other authors, collected in PubChem BioAssay AID1259409 (Chemical Carcinogenesis Research Information System (CCRIS), 2018).
“And” between values parts separate entries of the source, which are not always exact repeats. Identical values can stand only once.

Tested on: rodent chemically induced tumor inhibition, incidence and multiplicity
Test: CCRIS tumor inhibitor studies
Details: Species: RAT

## COc1ccc2c(c1)c(CC(=O)O)c(C)n2C(=O)c1ccc(Cl)cc1
Carcinogen: DIETHYLNITROSAMINE, 55-18-5, N-METHYL-N-NITROSOUREA, 684-93-5, N-BUTYL-N-(4-HYDROXYBUTYL)NITROSAMINE, 3817-11-6, 1,2-DIM, Carcinogen: DIETHYLNITROSAMINE, 55-18-5, N-METHYL-N-NITROSOUREA, 684-93-5, N-BUTYL-N-(4-HYDROXYBUTYL)NITROSAMINE, 3817-11-6, 1,2-DIM, Dose [Inhibitor]: 0, 20 PPM IN DRINKING WATER FOR 23 WK BEGINNING 1 WK POST CARCINOGEN TREATMENT (STUDY DURATION: 28 WK), Route [Inhibitor]: ORAL, Strain/Sex: F344/MALE, Target Tissue: Type of Lesion: LARGE INTESTINE: ADENOCARCINOMA, Dose [Carcinogen]: 100 MG/KG BW DEN ONCE, 20 MG/KG BW MNU ONCE ON DAYS 6,9, AND 12, 0.05% BBN IN DRINKING WATER FOR FIRST TWO WK, 40 MG/KG, Dose [Carcinogen]: 100 MG/KG BW DEN ONCE, 20 MG/KG BW MNU ONCE ON DAYS 6,9, AND 12, 0.05% BBN IN DRINKING WATER FOR FIRST TWO WK, 40 MG/KG, Promoter: NONE USED
  tumour outcome (control, treated, inhibition, significance): 2/20 (10%), 0/19 (0%), 100%, not significant
Carcinogen: DIETHYLNITROSAMINE, 55-18-5, N-METHYL-N-NITROSOUREA, 684-93-5, N-BUTYL-N-(4-HYDROXYBUTYL)NITROSAMINE, 3817-11-6, 1,2-DIM, Carcinogen: DIETHYLNITROSAMINE, 55-18-5, N-METHYL-N-NITROSOUREA, 684-93-5, N-BUTYL-N-(4-HYDROXYBUTYL)NITROSAMINE, 3817-11-6, 1,2-DIM, Dose [Inhibitor]: 0, 20 PPM IN DRINKING WATER FOR 23 WK BEGINNING 1 WK POST CARCINOGEN TREATMENT (STUDY DURATION: 28 WK), Route [Inhibitor]: ORAL, Strain/Sex: F344/MALE, Target Tissue: Type of Lesion: LARGE INTESTINE: ADENOMA, Dose [Carcinogen]: 100 MG/KG BW DEN ONCE, 20 MG/KG BW MNU ONCE ON DAYS 6,9, AND 12, 0.05% BBN IN DRINKING WATER FOR FIRST TWO WK, 40 MG/KG, Dose [Carcinogen]: 100 MG/KG BW DEN ONCE, 20 MG/KG BW MNU ONCE ON DAYS 6,9, AND 12, 0.05% BBN IN DRINKING WATER FOR FIRST TWO WK, 40 MG/KG, Promoter: NONE USED
  tumour outcome (control, treated, inhibition, significance): 3/20 (15%), 0/19 (0%), 100%, not significant
Carcinogen: DIETHYLNITROSAMINE, 55-18-5, N-METHYL-N-NITROSOUREA, 684-93-5, N-BUTYL-N-(4-HYDROXYBUTYL)NITROSAMINE, 3817-11-6, 1,2-DIM, Carcinogen: DIETHYLNITROSAMINE, 55-18-5, N-METHYL-N-NITROSOUREA, 684-93-5, N-BUTYL-N-(4-HYDROXYBUTYL)NITROSAMINE, 3817-11-6, 1,2-DIM, Dose [Inhibitor]: 0, 20 PPM IN DRINKING WATER FOR 23 WK BEGINNING 1 WK POST CARCINOGEN TREATMENT (STUDY DURATION: 28 WK), Route [Inhibitor]: ORAL, Strain/Sex: F344/MALE, Target Tissue: Type of Lesion: LIVER: HEPATOCELLULAR ADENOMA, HYPERPLASTIC NODULE, Dose [Carcinogen]: 100 MG/KG BW DEN ONCE, 20 MG/KG BW MNU ONCE ON DAYS 6,9, AND 12, 0.05% BBN IN DRINKING WATER FOR FIRST TWO WK, 40 MG/KG, Dose [Carcinogen]: 100 MG/KG BW DEN ONCE, 20 MG/KG BW MNU ONCE ON DAYS 6,9, AND 12, 0.05% BBN IN DRINKING WATER FOR FIRST TWO WK, 40 MG/KG, Promoter: NONE USED
  tumour outcome (control, treated, inhibition, significance): 2/20 (10%), 7/19 (37%), -270%, not significant
Carcinogen: DIETHYLNITROSAMINE, 55-18-5, N-METHYL-N-NITROSOUREA, 684-93-5, N-BUTYL-N-(4-HYDROXYBUTYL)NITROSAMINE, 3817-11-6, 1,2-DIM, Carcinogen: DIETHYLNITROSAMINE, 55-18-5, N-METHYL-N-NITROSOUREA, 684-93-5, N-BUTYL-N-(4-HYDROXYBUTYL)NITROSAMINE, 3817-11-6, 1,2-DIM, Dose [Inhibitor]: 0, 20 PPM IN DRINKING WATER FOR 23 WK BEGINNING 1 WK POST CARCINOGEN TREATMENT (STUDY DURATION: 28 WK), Route [Inhibitor]: ORAL, Strain/Sex: F344/MALE, Target Tissue: Type of Lesion: LIVER: HEPATOCELLULAR ADENOMA, Dose [Carcinogen]: 100 MG/KG BW DEN ONCE, 20 MG/KG BW MNU ONCE ON DAYS 6,9, AND 12, 0.05% BBN IN DRINKING WATER FOR FIRST TWO WK, 40 MG/KG, Dose [Carcinogen]: 100 MG/KG BW DEN ONCE, 20 MG/KG BW MNU ONCE ON DAYS 6,9, AND 12, 0.05% BBN IN DRINKING WATER FOR FIRST TWO WK, 40 MG/KG, Promoter: NONE
  outcome: 0/20 (0%), 0/19 (0%), 0%, not significant
Carcinogen: DIETHYLNITROSAMINE, 55-18-5, N-METHYL-N-NITROSOUREA, 684-93-5, N-BUTYL-N-(4-HYDROXYBUTYL)NITROSAMINE, 3817-11-6, 1,2-DIM, Carcinogen: DIETHYLNITROSAMINE, 55-18-5, N-METHYL-N-NITROSOUREA, 684-93-5, N-BUTYL-N-(4-HYDROXYBUTYL)NITROSAMINE, 3817-11-6, 1,2-DIM, Dose [Inhibitor]: 0, 20 PPM IN DRINKING WATER FOR 23 WK BEGINNING 1 WK POST CARCINOGEN TREATMENT (STUDY DURATION: 28 WK), Route [Inhibitor]: ORAL, Strain/Sex: F344/MALE, Target Tissue: Type of Lesion: LUNG: ADENOCARCINOMA, Dose [Carcinogen]: 100 MG/KG BW DEN ONCE, 20 MG/KG BW MNU ONCE ON DAYS 6,9, AND 12, 0.05% BBN IN DRINKING WATER FOR FIRST TWO WK, 40 MG/KG, Dose [Carcinogen]: 100 MG/KG BW DEN ONCE, 20 MG/KG BW MNU ONCE ON DAYS 6,9, AND 12, 0.05% BBN IN DRINKING WATER FOR FIRST TWO WK, 40 MG/KG, Promoter: NONE UESD
  tumour outcome (control, treated, inhibition, significance): 1/20 (5%), 0/19 (0%), 100%, not significant
Carcinogen: DIETHYLNITROSAMINE, 55-18-5, N-METHYL-N-NITROSOUREA, 684-93-5, N-BUTYL-N-(4-HYDROXYBUTYL)NITROSAMINE, 3817-11-6, 1,2-DIM, Carcinogen: DIETHYLNITROSAMINE, 55-18-5, N-METHYL-N-NITROSOUREA, 684-93-5, N-BUTYL-N-(4-HYDROXYBUTYL)NITROSAMINE, 3817-11-6, 1,2-DIM, Dose [Inhibitor]: 0, 20 PPM IN DRINKING WATER FOR 23 WK BEGINNING 1 WK POST CARCINOGEN TREATMENT (STUDY DURATION: 28 WK), Route [Inhibitor]: ORAL, Strain/Sex: F344/MALE, Target Tissue: Type of Lesion: LUNG: ADENOMA, Dose [Carcinogen]: 100 MG/KG BW DEN ONCE, 20 MG/KG BW MNU ONCE ON DAYS 6,9, AND 12, 0.05% BBN IN DRINKING WATER FOR FIRST TWO WK, 40 MG/KG, Dose [Carcinogen]: 100 MG/KG BW DEN ONCE, 20 MG/KG BW MNU ONCE ON DAYS 6,9, AND 12, 0.05% BBN IN DRINKING WATER FOR FIRST TWO WK, 40 MG/KG, Promoter: NONE USED
  tumour outcome (control, treated, inhibition, significance): 8/20 (40%), 2/19 (11%), 73%, p<0.05
Carcinogen: DIETHYLNITROSAMINE, 55-18-5, N-METHYL-N-NITROSOUREA, 684-93-5, N-BUTYL-N-(4-HYDROXYBUTYL)NITROSAMINE, 3817-11-6, 1,2-DIM, Carcinogen: DIETHYLNITROSAMINE, 55-18-5, N-METHYL-N-NITROSOUREA, 684-93-5, N-BUTYL-N-(4-HYDROXYBUTYL)NITROSAMINE, 3817-11-6, 1,2-DIM, Dose [Inhibitor]: 0, 20 PPM IN DRINKING WATER FOR 23 WK BEGINNING 1 WK POST CARCINOGEN TREATMENT (STUDY DURATION: 28 WK), Route [Inhibitor]: ORAL, Strain/Sex: F344/MALE, Target Tissue: Type of Lesion: THYROID: FOLLICULAR ADENOMA, Dose [Carcinogen]: 100 MG/KG BW DEN ONCE, 20 MG/KG BW MNU ONCE ON DAYS 6,9, AND 12, 0.05% BBN IN DRINKING WATER FOR FIRST TWO WK, 40 MG/KG, Dose [Carcinogen]: 100 MG/KG BW DEN ONCE, 20 MG/KG BW MNU ONCE ON DAYS 6,9, AND 12, 0.05% BBN IN DRINKING WATER FOR FIRST TWO WK, 40 MG/KG, Promoter: NONE USED
  tumour outcome (control, treated, inhibition, significance): 6/20 (30%), 2/19 (11%), 63%, not significant and 1/20 (5%), 1/19 (5%), 0%, not significant
Carcinogen: DIETHYLNITROSAMINE, 55-18-5, N-METHYL-N-NITROSOUREA;684-93-5, N-BUTYL-N-(4-HYDROXYBUTYL)NITROSAMINE, 3817-11-6, 1,2-DIME, Carcinogen: DIETHYLNITROSAMINE, 55-18-5, N-METHYL-N-NITROSOUREA;684-93-5, N-BUTYL-N-(4-HYDROXYBUTYL)NITROSAMINE, 3817-11-6, 1,2-DIME, Dose [Inhibitor]: 0, 20 PPM IN DRINKING WATER FOR 23 WK BEGINNING 1 WK POST CARCINOGEN TREATMENT (STUDY DURATION: 28 WK), Route [Inhibitor]: ORAL, Strain/Sex: F344/MALE, Target Tissue: Type of Lesion: SMALL INTESTINE: ADENOMA, Dose [Carcinogen]: 100 MG/KG BW DEN ONCE, 20 MG/KG BW MNU ONCE ON DAYS 6,9, AND 12, 0.05% BBN IN DRINKING WATER FOR FIRST TWO WK, 40 MG/KG, Dose [Carcinogen]: 100 MG/KG BW DEN ONCE, 20 MG/KG BW MNU ONCE ON DAYS 6,9, AND 12, 0.05% BBN IN DRINKING WATER FOR FIRST TWO WK, 40 MG/KG, Promoter: NONE USED
  tumour outcome (control, treated, inhibition, significance): 5/20 (25%), 0/19 (0%), 100%, p<0.05
Carcinogen: DIETHYLNITROSAMINE, 55-18-5, N-METHYL-N-NITROSOUREA, 684-93-5, N-METHYL-N-(4-HYDROXYBUTYL)NITROSAMINE, 3817-11-6, 1,2-DI, Carcinogen: DIETHYLNITROSAMINE, 55-18-5, N-METHYL-N-NITROSOUREA, 684-93-5, N-METHYL-N-(4-HYDROXYBUTYL)NITROSAMINE, 3817-11-6, 1,2-DI, Dose [Inhibitor]: 0, 20 PPM IN DRINKING WATER FOR 23 WK BEGINNING 1 WK POST CARCINOGEN TREATMENT (STUDY DURATION: 28 WK), Route [Inhibitor]: ORAL, Strain/Sex: F344/MALE, Target Tissue: Type of Lesion: SMALL INTESTINE: ADENOCARCINOMA, Dose [Carcinogen]: 100 MG/KG BW DEN ONCE, 20 MG/KG BW MNU ONCE ON DAYS 6,9, AND 12, 0.05% BBN IN DRINKING WATER FOR FIRST TWO WK, 40 MG/KG, Dose [Carcinogen]: 100 MG/KG BW DEN ONCE, 20 MG/KG BW MNU ONCE ON DAYS 6,9, AND 12, 0.05% BBN IN DRINKING WATER FOR FIRST TWO WK, 40 MG/KG, Promoter: NONE USED
  tumour outcome (control, treated, inhibition, significance): 2/20 (10%), 0/19 (0%), 100%, not significant
Carcinogen: METHYLAZOXYMETHANOL, 590-96-5, Dose [Inhibitor]: 7.5 MG/KG BW DAILY FOR 3 WK STARTING 27 WK AFTER THE START OF CARCINOGEN TREATMENT (STUDY DURATION: 30 WK), Route [Inhibitor]: INTRARECTAL, Strain/Sex: DONRYU/MALE, Target Tissue: Type of Lesion: LARGE INTESTINE: ADENOCARCINOMA, Dose [Carcinogen]: 20 MG/KG BW 1/WK FOR 6 WK, Promoter: NONE USED
  tumour outcome (control, treated, inhibition, significance): 19/23 (83%), 15/30 (50%), 40%, p<0.05
